Data as given in patent US4267102A, “Bleomycin group antibiotics” (Nippon Kayaku Kabushiki Kaisha, priority 1979, dated 1981).
Values joined by “and” are separate entries in the source; they are usually repeats but may differ in a detail not shown here. Identical values can stand only once.

Key:
[1] = system: Mycobacterium smegmatis ATCC 607; assay: Antimicrobial activity against Mycobacterium smegmatis ATCC 607 (cylinder agar plate method); type: cell-based
Procedure: 4. Antimicrobial activity against Mycobacterium smegmatis ATCC 607.
The antibacterial activity was assayed by the cylinder agar plate method against the above bacterium by assuming the activity of standard copper-free bleomycin A2 to be 1,000 mcg units/mg.
Note: Antimicrobial activity was assayed against Mycobacterium smegmatis ATCC 607 by assuming the activity of bleomycin A2 (copper-free form) to be 1,000 mcg units/mg. The same shall apply hereinafter.

HeLa S3 cells = assay: Growth inhibitory effect on cultured HeLa cells; type: cell-based; conditions: Cu-free; three days cultivation with sample
Procedure: 3. Growth inhibitory effect on cultured HeLa cells.
HeLa S3 cells were inoculated into a medium (MEM with the addition of 10% calf serum) in a plastic Petri dish. After two days from the inoculation, N-methylbleomycinic acid or a N-methylbleomycin was added to the dish and after cultivation for further three days, the number of cells was counted. The growth inhibition (%) was calculated by the following equation: [formula] where A is the final number of cells on the third day from the addition of the test sample, B the final number of cells in a control culture without the addition of the test sample, and C the number of cells at the time of addition of the test sample. The value of ID50 (concentration for 50% inhibition) was calculated from the graph obtained by plotting the concentration of sample against the growth inhibition. A similar test was performed on bleomycinic acid and bleomycins used as control.

[2] = system: DNA labelled with tritium; assay: DNA-strand cleaving activity in cell-free system; type: biochemical; conditions: copper-free compound with divalent iron, oxygen, 37° C., 5 minutes
Procedure: 2. DNA-strand cleaving activity in cell-free system.
The mechanism of carcinostatic action of bleomycins has been believed to involve the cleavage of DNA chain caused by the joint action of copper-free bleomycins, divalent iron and molecular oxygen. Similar activity of N-methylbleomycins were also confirmed.
A mixture of divalent iron and a copper-free N-methylbleomycin was dissolved together with DNA labelled with tritium in a M/10 phosphate buffer of pH 7.4 The resulting solution was allowed to react in the presence of oxygen at 37° C. for 5 minutes. To the reaction mixture, was added 25% trichloroacetic acid. The precipitate was removed by centrifugation and the supernatant (acid-soluble fraction) was assayed for radioactivity to obtain the percentage of acid-soluble DNA in acid. This percentage was utilized as an index of the degree of DNA-strand cleavage. Similar test was repeated on bleomycins A2 and B2 used as reference.

inactivating enzyme = inactivating enzyme (Rattus norvegicus, UniProt P70645); conditions: rat liver extract, 37° C., 15, 30, 60 and 120 minutes; residual activity against Mycobacterium smegmatis ATCC 607
Procedure: Test for resistance to inactivating enzyme.
(1) Extraction of inactivating enzyme.
The liver of female Donryu strain rat was ground in twice by weight of M/15 phosphate buffer of pH 7.2 to prepare a tissue emulsion. The emulsion was centrifuged at 105,000×G for 60 minutes and the supernatant was dialyzed with the above buffer. A high molecular fraction thus obtained was used as the extract solution of an inactivating enzyme.
(2) Examination of inactivating reaction.

[3] = Table 6, Cu-complex, standard copper-free bleomycin A2 assumed 1,000 mcg units/mg
[4] = Table 6, Cu-free, standard copper-free bleomycin A2 assumed 1,000 mcg units/mg
[5] = sample concentration 6.25 mcg/ml
[6] = sample concentration 12.5 mcg/ml
[7] = Examples, step A product: copper complex hydrochloride, bleomycin A2 (copper-free form) assumed 1,000 mcg units/mg
[8] = Examples, step B product: copper-free hydrochloride, bleomycin A2 (copper-free form) assumed 1,000 mcg units/mg

Chain of inactivating enzyme (P70645 whole entry): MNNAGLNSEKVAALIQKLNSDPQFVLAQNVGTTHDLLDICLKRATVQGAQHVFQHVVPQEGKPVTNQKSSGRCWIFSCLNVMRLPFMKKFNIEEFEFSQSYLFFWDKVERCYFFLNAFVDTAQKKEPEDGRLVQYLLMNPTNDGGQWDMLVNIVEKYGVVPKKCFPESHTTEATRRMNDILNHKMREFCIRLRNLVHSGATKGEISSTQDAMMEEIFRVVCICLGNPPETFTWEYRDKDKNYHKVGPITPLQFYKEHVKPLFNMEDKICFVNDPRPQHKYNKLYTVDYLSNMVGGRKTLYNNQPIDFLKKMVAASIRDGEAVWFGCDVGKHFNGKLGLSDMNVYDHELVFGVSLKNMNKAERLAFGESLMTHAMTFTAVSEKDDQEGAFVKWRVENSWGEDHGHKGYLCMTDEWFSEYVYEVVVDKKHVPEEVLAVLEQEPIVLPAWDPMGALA

Compound	Antimicrobial activity [1, 3]	Antimicrobial activity [1, 4]	50% growth inhibitory concentration (ID50) against cultured HeLa S3 cells (HeLa S3 cells) [µg/mL]	Acid-soluble DNA (%) [2, 5] [%]	Acid-soluble DNA (%) [2, 6] [%]	Acid-soluble DNA (%) ([2]; sample concentration 25 mcg/ml)	Resistance to inactivating enzyme (residual activity with reaction time, FIGS. 1 to 6) (inactivating enzyme)	Antimicrobial activity [1, 7]	Antimicrobial activity [1, 8]
3-(3-n-butylaminopropylamino)propylamino-N-methylbleomycin [Compound (6)]	3,695 mcg units/mg	3,438 mcg units/mg	0.37	59.5	94.0	100.4			
Cc1c(N)nc(C(CC(N)=O)NCC(N)C(N)=O)nc1C(=O)NC(C(=O)NC(C)C(O)C(C)C(=O)NC(C(=O)NCCc1nc(-c2nc(C(=O)O)cs2)cs1)C(C)O)C(OC1OC(CO)C(O)C(O)C1OC1OC(CO)C(O)C(OC(N)=O)C1O)c1cnc[nH]1 (centres unmarked) [Bleomycinic acid, reference compound]			18				markedly susceptible		
N-methylbleomycin A2 [Compound (2)]	423 mcg units/mg	513 mcg units/mg	0.81	64.6	90.7	99.9		520 mcg units/mg and 516 mcg units/mg and 507 mcg units/mg	418 mcg units/mg and 427 mcg units/mg and 420 mcg units/mg
N-methylbleomycin B2 [Compound (3)]	1,755 mcg units/mg	1,766 mcg units/mg	0.35	87.6	95.5	102.1		1,758 mcg units/mg and 1,770 mcg units/mg	1,752 mcg units/mg and 1,756 mcg units/mg
Cc1c(N)nc([C@H](CC(N)=O)NC[C@H](N)C(N)=O)nc1C(=O)N[C@H](C(=O)N[C@H](C)[C@@H](O)[C@H](C)C(=O)N[C@H](C(=O)NCCc1nc(-c2nc(C(=O)NCCCN)cs2)cs1)[C@@H](C)O)[C@@H](O[C@@H]1O[C@@H](CO)[C@@H](O)[C@H](O)[C@@H]1O[C@H]1O[C@H](CO)[C@@H](O)[C@H](OC(N)=O)[C@@H]1O)c1cnc[nH]1 [Bleomycin A2 -b, bleomycin A2 '-b, reference compound]			1.5						
3-[(S)-1'-phenylethylamino]propylamino-N-methylbleomycin [Compound (5)]	4,266 mcg units/mg	4,333 mcg units/mg	0.30	70.1	92.6	100.5		4,320 mcg units/mg	4,280 mcg units/mg
Cc1c(N)nc(C(CC(N)=O)NCC(N)C(N)=O)nc1C(=O)NC(C(=O)NC(C)C(O)C(C)C(=O)NC(C(=O)NCCc1nc(-c2nc(C(=O)NCCCNC(C)c3ccccc3)cs2)cs1)C(C)O)C(OC1OC(CO)C(O)C(O)C1OC1OC(CO)C(O)C(OC(N)=O)C1O)c1c[nH]cn1 [3-[(S)-1'-phenylethylamino]propylaminobleomycin, reference compound]			0.52						
N-methylbleomycinic acid [Compound (1)]	64 mcg units/mg	59 mcg units/mg	4.8						
Bleomycin B2 [reference compound]			0.80	85.6	95.8	98.2			
N-methylbleomycin A2 '-b [Compound (4)]	625 mcg units/mg	595 mcg units/mg	0.58	61.7	94.1	99.4			618 mcg units/mg
Cc1c(N)nc([C@H](CC(N)=O)NC[C@H](N)C(N)=O)nc1C(=O)N[C@H](C(=O)N[C@H](C)[C@@H](O)[C@H](C)C(=O)N[C@H](C(=O)NCCc1nc(-c2nc(C(=O)NCCC[S+](C)C)cs2)cs1)[C@@H](C)O)[C@@H](O[C@@H]1O[C@@H](CO)[C@@H](O)[C@H](O)[C@@H]1O[C@H]1O[C@H](CO)[C@@H](O)[C@H](OC(N)=O)[C@@H]1O)c1c[nH]cn1.[Br-] [Bleomycin A2, reference compound]			0.73	78.6	90.8	100.9			
3-(3-n-butylaminopropylamino)propylaminobleomycin [reference compound]			0.43						
